Source: US10358434B2, “2-(3-pyridinyl)-1H-benzimidazole derivative compound and medicament containing same” (NIHON MEDI-PHYSICS CO., LTD., priority 2014, dated 2019)
Blank lines part the entries; values can stand above or below the compound they belong to.

How the values were obtained:
[1] = In vivo kinetics experiment (radioactivity distribution); design: species or system Wistar male rat
Method in brief: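 Male Wistar rats (9 weeks) under isoflurane received approximately 1 to 3.7 MBq radiotracer in saline with 1 w/v % ascorbic acid by tail-vein injection. At 10, 30 and 60 min, rats were exsanguinated; blood, organs and remaining body weighed and counted, giving % ID/g and adrenal-to-tissue ratios.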

[2] = tested on: human adrenal gland section expressing aldosterone-producing adenoma; test: In vitro autoradiography using human adrenal adenoma; type: binding; conditions: section of FIG. 17(b); for B2 (PSL value, aldosterone-producing adenoma): site 71b; for B1 (PSL value, normal adrenal cortex): site 72b
Method in brief: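 Frozen 7-μm sections of human adrenal bearing aldosterone-producing adenoma were immersed 10 min in radioligand (5-33 kBq/mL) in PBS with 1% fatty-acid-free BSA, washed, then exposed to imaging plates for 16-20 h. Equal-area ROI PSL in adenoma (B2) versus normal cortex (B1) gave B2/B1, corrected for nuclide half-life, added activity and exposure time.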

[3] = Plasma stability evaluation (TLC analysis); type: in vitro ADME; conditions: 37° C., 60 minutes, TLC analysis
Method in brief: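 Radiolabelled compounds were incubated in heparin-treated pooled normal human plasma at 37° C for 60 minutes. After methanol deproteinization and centrifugation, stability was assessed by TLC under the conditions used for each compound's synthesis.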

[4] = 10 min after administration, rat i.v., mean ± SD
[5] = 30 min after administration, rat i.v., mean ± SD
[6] = 60 min after administration, rat i.v., mean ± SD
[7] = rat, caudal vein, 10 min after administration
[8] = rat, caudal vein, 30 min after administration
[9] = rat, caudal vein, 60 min after administration

Compound: CC(C)n1c(-c2cncc(Cn3ccnc3)c2)nc2ccc([123I])cc21 [[^123I] 606, 2-[5-{(1H-imidazol-1-yl)methyl}pyridin-3-yl]-6-[^123I]iodo-1-isopropyl-1H-benzo[d]imidazole]
Adrenal gland/blood ratio of radioactivity accumulation [1, 4]: 85.09 ± 27.52
Adrenal gland/fat ratio of radioactivity accumulation [1, 4]: 100.88 ± 26.65
Adrenal gland/kidney ratio of radioactivity accumulation [1, 4]: 10.11 ± 2.69
Adrenal gland/liver ratio of radioactivity accumulation [1, 4]: 4.02 ± 1.20
Adrenal gland/muscle ratio of radioactivity accumulation [1, 4]: 57.42 ± 9.23
Adrenal gland/small intestine ratio of radioactivity accumulation [1, 4]: 9.70 ± 3.04
Radioactivity distribution Adrenal gland [1, 4]: 13.01 ± 3.75 % ID/g
Radioactivity distribution Bladder (including urine) [1, 4]: 0.27 ± 0.01 % ID/g
Radioactivity distribution Blood [1, 4]: 0.15 ± 0.01 % ID/g
Radioactivity distribution Fat [1, 4]: 0.13 ± 0.01 % ID/g
Radioactivity distribution Femur [1, 4]: 0.59 ± 0.02 % ID/g
Radioactivity distribution Heart [1, 4]: 0.56 ± 0.04 % ID/g
Radioactivity distribution Kidney [1, 4]: 1.29 ± 0.11 % ID/g
Radioactivity distribution Large intestine [1, 4]: 0.17 ± 0.00 % ID/g
Radioactivity distribution Liver [1, 4]: 3.24 ± 0.05 % ID/g
Radioactivity distribution Lung [1, 4]: 0.86 ± 0.07 % ID/g
Radioactivity distribution Muscle (lower limbs) [1, 4]: 0.22 ± 0.04 % ID/g
Radioactivity distribution Remaining whole body [1, 4]: 0.29 ± 0.02 % ID/g
Radioactivity distribution Small intestine [1, 4]: 1.35 ± 0.04 % ID/g
Radioactivity distribution Spleen [1, 4]: 4.55 ± 0.41 % ID/g
Radioactivity distribution Stomach [1, 4]: 0.75 ± 0.09 % ID/g
Radioactivity distribution Testis [1, 4]: 0.08 ± 0.00 % ID/g
Radioactivity distribution Whole brain [1, 4]: 0.03 ± 0.00 % ID/g
Adrenal gland/blood ratio of radioactivity accumulation [1, 5]: 151.28 ± 30.77
Adrenal gland/fat ratio of radioactivity accumulation [1, 5]: 172.63 ± 42.67
Adrenal gland/kidney ratio of radioactivity accumulation [1, 5]: 20.98 ± 3.60
Adrenal gland/liver ratio of radioactivity accumulation [1, 5]: 8.21 ± 1.88
Adrenal gland/muscle ratio of radioactivity accumulation [1, 5]: 130.86 ± 25.55
Adrenal gland/small intestine ratio of radioactivity accumulation [1, 5]: 7.82 ± 2.11
Radioactivity distribution Adrenal gland [1, 5]: 21.23 ± 4.43 % ID/g
Radioactivity distribution Bladder (including urine) [1, 5]: 1.17 ± 0.36 % ID/g
Radioactivity distribution Blood [1, 5]: 0.14 ± 0.00 % ID/g
Radioactivity distribution Fat [1, 5]: 0.12 ± 0.01 % ID/g
Radioactivity distribution Femur [1, 5]: 0.50 ± 0.01 % ID/g
Radioactivity distribution Heart [1, 5]: 0.44 ± 0.01 % ID/g
Radioactivity distribution Kidney [1, 5]: 1.01 ± 0.04 % ID/g
Radioactivity distribution Large intestine [1, 5]: 0.23 ± 0.01 % ID/g
Radioactivity distribution Liver [1, 5]: 2.59 ± 0.07 % ID/g
Radioactivity distribution Lung [1, 5]: 0.65 ± 0.03 % ID/g
Radioactivity distribution Muscle (lower limbs) [1, 5]: 0.16 ± 0.01 % ID/g
Radioactivity distribution Remaining whole body [1, 5]: 0.24 ± 0.01 % ID/g
Radioactivity distribution Small intestine [1, 5]: 2.75 ± 0.21 % ID/g
Radioactivity distribution Spleen [1, 5]: 3.80 ± 0.26 % ID/g
Radioactivity distribution Stomach [1, 5]: 1.66 ± 0.35 % ID/g
Radioactivity distribution Testis [1, 5]: 0.11 ± 0.01 % ID/g
Radioactivity distribution Whole brain [1, 5]: 0.03 ± 0.00 % ID/g
Adrenal gland/blood ratio of radioactivity accumulation [1, 6]: 161.94 ± 14.16
Adrenal gland/fat ratio of radioactivity accumulation [1, 6]: 229.99 ± 79.47
Adrenal gland/kidney ratio of radioactivity accumulation [1, 6]: 22.62 ± 2.40
Adrenal gland/liver ratio of radioactivity accumulation [1, 6]: 8.81 ± 1.68
Adrenal gland/muscle ratio of radioactivity accumulation [1, 6]: 168.08 ± 24.28
Adrenal gland/small intestine ratio of radioactivity accumulation [1, 6]: 5.20 ± 0.46
Radioactivity distribution Adrenal gland [1, 6]: 19.67 ± 3.42 % ID/g
Radioactivity distribution Bladder (including urine) [1, 6]: 2.06 ± 0.40 % ID/g
Radioactivity distribution Blood [1, 6]: 0.12 ± 0.01 % ID/g
Radioactivity distribution Fat [1, 6]: 0.09 ± 0.02 % ID/g
Radioactivity distribution Femur [1, 6]: 0.62 ± 0.04 % ID/g
Radioactivity distribution Heart [1, 6]: 0.40 ± 0.02 % ID/g
Radioactivity distribution Kidney [1, 6]: 0.87 ± 0.07 % ID/g
Radioactivity distribution Large intestine [1, 6]: 0.35 ± 0.06 % ID/g
Radioactivity distribution Liver [1, 6]: 2.24 ± 0.16 % ID/g
Radioactivity distribution Lung [1, 6]: 0.60 ± 0.03 % ID/g
Radioactivity distribution Muscle (lower limbs) [1, 6]: 0.12 ± 0.01 % ID/g
Radioactivity distribution Remaining whole body [1, 6]: 0.22 ± 0.01 % ID/g
Radioactivity distribution Small intestine [1, 6]: 3.77 ± 0.38 % ID/g
Radioactivity distribution Spleen [1, 6]: 3.05 ± 0.35 % ID/g
Radioactivity distribution Stomach [1, 6]: 1.90 ± 0.35 % ID/g
Radioactivity distribution Testis [1, 6]: 0.16 ± 0.03 % ID/g
Radioactivity distribution Whole brain [1, 6]: 0.03 ± 0.00 % ID/g
B2/B1 accumulation ratio [2]: 0.87
B2 (PSL value, aldosterone-producing adenoma) [2]: 1655
B1 (PSL value, normal adrenal cortex) [2]: 1913
Radiochemical purity after incubation in human plasma [3]: 88%

Adrenal gland/blood ratio of radioactivity accumulation [1, 7]: 52.24 ± 16.82
Adrenal gland/fat ratio of radioactivity accumulation [1, 7]: 49.21 ± 30.24
Adrenal gland/kidney ratio of radioactivity accumulation [1, 7]: 3.95 ± 1.50
Adrenal gland/liver ratio of radioactivity accumulation [1, 7]: 4.37 ± 1.12
Adrenal gland/muscle ratio of radioactivity accumulation [1, 7]: 34.85 ± 6.45
Adrenal gland/small intestine ratio of radioactivity accumulation [1, 7]: 3.44 ± 1.04
Radioactivity distribution Adrenal gland [1, 7]: 10.24 ± 4.48 % ID/g
Radioactivity distribution Bladder (including urine) [1, 7]: 0.43 ± 0.13 % ID/g
Radioactivity distribution Blood [1, 7]: 0.13 ± 0.01 % ID/g
Radioactivity distribution Fat [1, 7]: 0.11 ± 0.01 % ID/g
Radioactivity distribution Femur [1, 7]: 0.85 ± 0.40 % ID/g
Radioactivity distribution Heart [1, 7]: 0.65 ± 0.09 % ID/g
Radioactivity distribution Kidney [1, 7]: 2.09 ± 0.09 % ID/g
Radioactivity distribution Large intestine [1, 7]: 0.11 ± 0.01 % ID/g
Radioactivity distribution Liver [1, 7]: 4.09 ± 0.45 % ID/g
Radioactivity distribution Lung [1, 7]: 0.98 ± 0.16 % ID/g
Radioactivity distribution Muscle (lower limbs) [1, 7]: 0.18 ± 0.05 % ID/g
Radioactivity distribution Remaining whole body [1, 7]: 0.24 ± 0.01 % ID/g
Radioactivity distribution Small intestine [1, 7]: 1.29 ± 0.12 % ID/g
Radioactivity distribution Spleen [1, 7]: 5.59 ± 1.78 % ID/g
Radioactivity distribution Stomach [1, 7]: 0.66 ± 0.34 % ID/g
Radioactivity distribution Testis [1, 7]: 0.04 ± 0.01 % ID/g
Radioactivity distribution Whole brain [1, 7]: 0.01 ± 0.00 % ID/g
Adrenal gland/blood ratio of radioactivity accumulation [1, 8]: 199.21 ± 91.92
Adrenal gland/fat ratio of radioactivity accumulation [1, 8]: 106.15 ± 23.20
Adrenal gland/kidney ratio of radioactivity accumulation [1, 8]: 12.16 ± 7.12
Adrenal gland/liver ratio of radioactivity accumulation [1, 8]: 17.77 ± 9.08
Adrenal gland/muscle ratio of radioactivity accumulation [1, 8]: 98.15 ± 67.95
Adrenal gland/small intestine ratio of radioactivity accumulation [1, 8]: 3.25 ± 1.07
Radioactivity distribution Adrenal gland [1, 8]: 15.46 ± 8.64 % ID/g
Radioactivity distribution Bladder (including urine) [1, 8]: 1.13 ± 0.19 % ID/g
Radioactivity distribution Blood [1, 8]: 0.10 ± 0.02 % ID/g
Radioactivity distribution Fat [1, 8]: 0.12 ± 0.03 % ID/g
Radioactivity distribution Femur [1, 8]: 0.83 ± 0.03 % ID/g
Radioactivity distribution Heart [1, 8]: 0.64 ± 0.04 % ID/g
Radioactivity distribution Kidney [1, 8]: 1.65 ± 0.27 % ID/g
Radioactivity distribution Large intestine [1, 8]: 0.14 ± 0.02 % ID/g
Radioactivity distribution Liver [1, 8]: 1.89 ± 0.21 % ID/g
Radioactivity distribution Lung [1, 8]: 0.97 ± 0.10 % ID/g
Radioactivity distribution Muscle (lower limbs) [1, 8]: 0.16 ± 0.02 % ID/g
Radioactivity distribution Remaining whole body [1, 8]: 0.27 ± 0.01 % ID/g
Radioactivity distribution Small intestine [1, 8]: 3.40 ± 0.80 % ID/g
Radioactivity distribution Spleen [1, 8]: 6.71 ± 0.48 % ID/g
Radioactivity distribution Stomach [1, 8]: 0.61 ± 0.14 % ID/g
Radioactivity distribution Testis [1, 8]: 0.05 ± 0.01 % ID/g
Radioactivity distribution Whole brain [1, 8]: 0.01 ± 0.00 % ID/g
Adrenal gland/blood ratio of radioactivity accumulation [1, 9]: 235.46 ± 58.57
Adrenal gland/fat ratio of radioactivity accumulation [1, 9]: 108.45 ± 23.85
Adrenal gland/kidney ratio of radioactivity accumulation [1, 9]: 13.73 ± 3.51
Adrenal gland/liver ratio of radioactivity accumulation [1, 9]: 20.07 ± 5.16
Adrenal gland/muscle ratio of radioactivity accumulation [1, 9]: 124.82 ± 30.33
Adrenal gland/small intestine ratio of radioactivity accumulation [1, 9]: 2.42 ± 0.71
Radioactivity distribution Adrenal gland [1, 9]: 18.65 ± 1.67 % ID/g
Radioactivity distribution Bladder (including urine) [1, 9]: 3.04 ± 1.32 % ID/g
Radioactivity distribution Blood [1, 9]: 0.06 ± 0.01 % ID/g
Radioactivity distribution Fat [1, 9]: 0.12 ± 0.04 % ID/g
Radioactivity distribution Femur [1, 9]: 0.90 ± 0.10 % ID/g
Radioactivity distribution Heart [1, 9]: 0.56 ± 0.01 % ID/g
Radioactivity distribution Kidney [1, 9]: 1.23 ± 0.01 % ID/g
Radioactivity distribution Large intestine [1, 9]: 0.55 ± 0.52 % ID/g
Radioactivity distribution Liver [1, 9]: 0.96 ± 0.10 % ID/g
Radioactivity distribution Lung [1, 9]: 0.78 ± 0.03 % ID/g
Radioactivity distribution Muscle (lower limbs) [1, 9]: 0.14 ± 0.01 % ID/g
Radioactivity distribution Remaining whole body [1, 9]: 0.28 ± 0.04 % ID/g
Radioactivity distribution Small intestine [1, 9]: 3.98 ± 1.32 % ID/g
Radioactivity distribution Spleen [1, 9]: 5.62 ± 1.11 % ID/g
Radioactivity distribution Stomach [1, 9]: 0.89 ± 0.21 % ID/g
Radioactivity distribution Testis [1, 9]: 0.05 ± 0.01 % ID/g
Radioactivity distribution Whole brain [1, 9]: 0.01 ± 0.00 % ID/g
Radiochemical purity after incubation in human plasma [3]: 94%
Compound: [123I]c1ccc2nc(-c3cncc(Cn4ccnn4)c3)n(C3CC3)c2c1 [[^123I] 603, 1-Cyclopropyl-2-[3-(1H-1,2,3-triazol-1-ylmethyl)pyridin-5-yl]-6-[^123I]iodo-1H-benzimidazole]
B2/B1 accumulation ratio [2]: 1.01
B2 (PSL value, aldosterone-producing adenoma) [2]: 2043
B1 (PSL value, normal adrenal cortex) [2]: 2027
